# Experimental data reported in EP0550016A1, “Novel quinolone carboxylic acid derivatives and processes for preparing same” (KOREA RESEARCH INSTITUTE OF CHEMICAL TECHNOLOGY, priority 1991, dated 1993).
# Read-outs that look alike come from different tables or passages of the source.
# Key:
# [1] = test system: Pseudomonas aeruginosa 9027; experiment: In vitro anti-bacterial activity test (MIC, two-fold dilution method) against the standard strains; format: cell-based; conditions: Table 1 strain 12: Pseudomonas aeruginosa 9027
# [2] = test system: Escherichia coli DC 2; experiment: as above; format: cell-based; conditions: DC2
# [3] = test system: S. aureus 17740; experiment: Preventive effect against the systemic infection; format: in vivo; conditions: Staphylococcus aureus, 168 h, NMRI mice, survival on day 7, read-out: ED₅₀
# Procedure: (§1) 10 fold of the pathogen which leads to 100% lethality were injected intraperitoneally to male and female NMRI mice weighing 18 to 20g. Immediately and after 4 hours, the dose of test compounds which was determined by two-fold serial dilution method was administered orally or subcutaneously; and on day 7, the effectiveness was evaluated in terms of ED₅₀ calculated from the number of survived mice by the probit analysis.
# [4] = test system: Escherichia coli OTEM; experiment: In vitro anti-bacterial activity test (MIC, two-fold dilution method) against the standard strains; format: cell-based; conditions: Table 1 strain 10: Escherichia coli OTEM
# [5] = test system: Staphylococcus aureus 503; experiment: as above; format: cell-based; conditions: Table 1 strain 6: Staphylococcus aureus 503; read-out: MIC
# [6] = test system: Pseudomonas aeruginosa 1592 E; experiment: as above; format: cell-based; conditions: Table 1 strain 13: Pseudomonas aeruginosa 1592 E
# [7] = test system: Escherichia coli 1507 E; experiment: as above; format: cell-based; conditions: Table 1 strain 11: Escherichia coli 1507 E
# [8] = test system: Escherichia coli DC 0; experiment: as above; format: cell-based; conditions: DC0; Table 1 strain 8: Escherichia coli DC 0
# [9] = test system: Escherichia coli DC 0; experiment: as above; format: cell-based; conditions: DC0; Table 1 strain 7: Escherichia coli DC 0
# [10] = test system: Staphylococcus aureus 285; experiment: as above; format: cell-based; conditions: Table 1 strain 5: Staphylococcus aureus 285; read-out: MIC
# [11] = test system: Streptococcus pyogenes 308 A; experiment: as above; format: cell-based; conditions: Table 1 strain 1: Streptococcus pyogenes 308 A
# [12] = test system: Streptococcus faecium MD 8b; experiment: as above; format: cell-based; conditions: Enterococcus faecium, MD8B; Table 1 strain 3: Streptococcus faecium MD 8b; read-out: MIC
# [13] = Acute Toxicity Test; conditions: mouse, in vivo, female ICR mice, day 14, read-out: Acute Toxicity(LD₅₀)
# Procedure: Test compounds were administered to female ICR mice weighing 20 to 25g and on day 14, LD₅₀ was calculated from the number of survived mice by the probit analysis.
# [14] = test system: Enterobacter cloacae P 99; experiment: In vitro anti-bacterial activity test (MIC, two-fold dilution method) against the standard strains; format: cell-based; conditions: P99; Table 1 strain 19: Enterobacter cloacae P 99
# [15] = test system: Salmonella typhimurium; experiment: as above; format: cell-based; conditions: Salmonella enterica; Table 1 strain 16: Salmonella typhimurium
# [16] = test system: Staphylococcus aureus SG 511; experiment: as above; format: cell-based; conditions: SG511; Table 1 strain 4: Staphylococcus aureus SG 511
# [17] = test system: Streptococcus pyogenes 77 A; experiment: as above; format: cell-based; conditions: Table 1 strain 2: Streptococcus pyogenes 77 A; read-out: MIC
# [18] = test system: Enterobacter cloacae 1321 E; experiment: as above; format: cell-based; conditions: Table 1 strain 20: Enterobacter cloacae 1321 E
# [19] = test system: Klebsiella aerogenes 1082 E; experiment: as above; format: cell-based; conditions: Table 1 strain 17: Klebsiella aerogenes 1082 E
# [20] = test system: Pseudomonas aeruginosa 1771; experiment: as above; format: cell-based; conditions: Table 1 strain 14: Pseudomonas aeruginosa 1771
# [21] = test system: Pseudomonas aeruginosa 1771 M; experiment: as above; format: cell-based; conditions: Table 1 strain 15: Pseudomonas aeruginosa 1771 M
# [22] = test system: Klebsiella aerogenes 1522 E; experiment: as above; format: cell-based; conditions: Table 1 strain 18: Klebsiella aerogenes 1522 E
# [23] = test system: P. mirabilis; experiment: Preventive effect against the systemic infection; format: in vivo; conditions: Proteus mirabilis, 168 h, NMRI mice, survival on day 7, read-out: ED₅₀
# Procedure: as §1
# [24] = Table 1 strain 9: Escherichia coli DC 2, read-out: MIC
compound,measurement,setting,value
"CC(O)C(=O)O.NC1CC12CCN(c1c(F)cc3c(=O)c(C(=O)O)cn(C4CC4)c3c1F)C2 (centres unmarked) [Example 2, 7-(1-amino-5-azaspiro[2,4]heptane-5-yl)-1-cyclopropyl-6,8-difluoro-1,4-dihydro-4-oxoquinoline-3-carboxylic acid lactate]",MIC,[1],0.781 µg/mL
same,MIC,[2]; Escherichia coli,0.049 µg/mL
same,ED50,[3]; Oral Administration,49.7 mg/kg
same,ED50,"[3]; sc, Subcutaneous Injection",97.6 mg/kg
same,MIC,[4],0.025 µg/mL
same,MIC,[5],0.025 µg/mL
same,MIC,[6],0.781 µg/mL
same,MIC,[7],0.025 µg/mL
same,MIC,[8],0.195 µg/mL
same,MIC,[9],0.004 µg/mL
same,MIC,[10],0.025 µg/mL
same,MIC,[11],0.195 µg/mL
same,MIC,[12],0.098 µg/mL
same,LD50,"[13]; ip, Intraperitoneal Injection",580 mg/kg
same,LD50,[13]; Oral Administration,3800 mg/kg
same,MIC,[14],0.013 µg/mL
same,MIC,[15],0.013 µg/mL
same,MIC,[16],0.025 µg/mL
same,MIC,[17],0.098 µg/mL
same,MIC,[18],0.007 µg/mL
same,MIC,[19],0.013 µg/mL
same,MIC,[20],0.781 µg/mL
same,MIC,[21],0.098 µg/mL
same,MIC,[22],0.025 µg/mL
"NC1CC12CCN(c1c(F)cc3c(=O)c(C(=O)O)cn(C4CC4)c3c1Cl)C2 (centres unmarked) [Example 3, 7-(1-amino-5-azaspiro[2,4]heptane-5-yl)-8-chloro-1-cyclopropyl-6-fluoro-1,4-dihydro-4-oxoquinoline-3-carboxylic acid]",MIC,[1],0.781 µg/mL
same,MIC,[2]; [24],0.025 µg/mL
same,ED50,[23]; Oral Administration,2.58 mg/kg
same,ED50,"[23]; sc, Subcutaneous Injection",0.63 mg/kg
same,MIC,[4],0.007 µg/mL
same,MIC,[5],0.004 µg/mL
same,MIC,[6],0.781 µg/mL
same,MIC,[7],0.025 µg/mL
same,MIC,[8],0.195 µg/mL
same,MIC,[9],< 0.002 µg/mL
same,MIC,[10],0.007 µg/mL
same,MIC,[11],0.098 µg/mL
same,MIC,[12],0.391 µg/mL
same,MIC,[14],0.004 µg/mL
same,MIC,[15],0.004 µg/mL
same,MIC,[16],0.025 µg/mL
same,MIC,[17],0.025 µg/mL
same,MIC,[18],< 0.002 µg/mL
same,MIC,[19],< 0.002 µg/mL
same,MIC,[20],0.781 µg/mL
same,MIC,[21],0.195 µg/mL
same,MIC,[22],0.004 µg/mL
C[C@H]1COc2c(N3CCC4(CC4N)C3)c(F)cc3c(=O)c(C(=O)O)cn1c23 (some centres unmarked) [Example 13],MIC,[1],1.56 µg/mL
same,MIC,[2]; [24],0.098 µg/mL
same,MIC,[4],0.049 µg/mL
same,MIC,[5],0.049 µg/mL
same,MIC,[6],1.56 µg/mL
same,MIC,[7],0.098 µg/mL
same,MIC,[8],0.391 µg/mL
same,MIC,[9],0.025 µg/mL
same,MIC,[10],0.098 µg/mL
same,MIC,[11],0.391 µg/mL
same,MIC,[12],0.195 µg/mL
same,LD50 at 336 h,"[13]; ip, Intraperitoneal Injection",620 mg/kg
same,LD50 at 336 h,[13]; Oral Administration,4000 mg/kg
same,MIC,[14],0.049 µg/mL
same,MIC,[15],0.049 µg/mL
same,MIC,[16],0.098 µg/mL
same,MIC,[17],0.195 µg/mL
same,MIC,[18],0.049 µg/mL
same,MIC,[19],0.004 µg/mL
same,MIC,[20],1.56 µg/mL
same,MIC,[21],0.391 µg/mL
same,MIC,[22],0.098 µg/mL
